IC50 data for 17 molecules are collected here from patent US8263656B2 (Hoffmann-La Roche Inc., priority 2008, dated 2012).

The target of one test is T1, human CRTH2 (Homo sapiens, UniProt Q9Y5Y4).
T1 construct: expressed in transfected cells
T1 sequence (Q9Y5Y4 1-395): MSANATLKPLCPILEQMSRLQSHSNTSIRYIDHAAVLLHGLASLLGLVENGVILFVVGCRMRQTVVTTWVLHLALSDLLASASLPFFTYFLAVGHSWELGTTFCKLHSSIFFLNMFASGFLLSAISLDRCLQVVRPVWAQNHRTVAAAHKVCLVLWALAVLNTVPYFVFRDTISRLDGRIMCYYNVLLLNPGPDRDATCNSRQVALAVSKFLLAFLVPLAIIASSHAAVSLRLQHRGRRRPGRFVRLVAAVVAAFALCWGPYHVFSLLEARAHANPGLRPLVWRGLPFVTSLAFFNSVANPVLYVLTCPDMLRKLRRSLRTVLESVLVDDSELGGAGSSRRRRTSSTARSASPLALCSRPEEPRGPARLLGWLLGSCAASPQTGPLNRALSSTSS
Briefly: Human CRTH2 Receptor Binding Assay (whole cell, [3H]ramatroban competition). Conditions: CHO-K1 cells expressing human CRTH2 and G-alpha16; 20 nM [3H]ramatroban; 1 hour, room temperature. An excerpt:
A whole cell receptor binding assay using [^3H]ramatroban as the competing radioactive ligand was employed to evaluate the compound binding activity to human CRTH2. The radioactive ligand [^3H]ramatroban was synthesized according to Sugimoto et. al. (Eur. J. Pharmacol. 524, 30-37, 2005) to a specific activity of 42 Ci/mmol.
A cell line stably expressing human CRTH2 was established by transfecting CHO-K1 cells with two mammalian expression vectors that harbored human CRTH2 and G-alpha16 cDNAs, respectively, using FuGene® 6 transfection reagent (from Roche). Stable clones expressing CRTH2 were selected by staining each clone with BM16 (BD Pharmingen™ from BD Biosciences, a division of Becton, Dickinson and Company), which is a rat monoclonal antibody to human CRTH2. The cells were maintained as monolayer cultures in Ham's F-12 medium containing 10% fetal bovine serum, 100 units/mL penicillin, […] streptomycin, 2 mM glutamine, 0.5 mg/mL G418 (geneticin) for CRTH2, and 0.2 mg/mL hygromycin-B (for G-alpha 16). For whole cell receptor binding assay, the monolayer cells were rinsed once with PBS (phosphate buffered saline), dissociated using diammonium ethylenediaminetetraacetate (Versene™ EDTA from the Dow Chemical Company), and suspended in PBS containing 10 mM MgCl2 and 0.06% BSA (bovine serum albumin) at 1.5×10^6 cells/mL.
The binding reactions (0.2 mL) were performed in 96-well plates at room temperature in PBS containing 1.5×10^5 cells, 10 mM MgCl2, 0.06% BSA, 20 nM [^3H]ramatroban, and test compound at various concentrations. After 1 hour of binding reactions, the cells were harvested on GF™/B filter microplates (microtiter plates with embedded glass fiber from PerkinElmer, Inc.) and washed 5 times with PBS using a Filtermate™ Harvester (a cell harvester that harvests and washes cells from microplates from PerkinElmer, Inc.). The radioactivities bound to the cells were determined using a microplate scintillation counter (TopCount® NXT, from PerkinElmer, Inc.) after adding 50 μL of Microscint™ 20 scintillation fluid (from PerkinElmer, Inc.) to each well of the filter plates. The radioactivity from non-specific binding was determined by replacing compound with 10 μM of 15(R)-15-methyl PGD2 (from Cayman Chemical Company) in the reaction mixtures. The radioactivity bound to the cells in the absence of compound (total binding) was determined by replacing compound with 0.25% of DMSO (dimethyl sulfoxide) in the reaction mixture. Specific binding data were obtained by subtracting the radioactivity of non-specific binding from each binding data.
The IC50 value is defined as the concentration of the tested compound that is required for 50% inhibition of total specific binding. In order to calculate the IC50 value, the percent inhibition data were determined for 7 concentrations for each compound. The percent inhibition for a compound at each concentration was calculated according to the following formula, [1-(specific binding in the presence of compound)/(total specific binding)]×100. The IC50 value was then obtained by fitting the percent inhibition data to a sigmoidal dose-response (4 parameter logistic) model in the XLfit® software Excel add-in program [from ID Business Solutions Ltd., model 205, where F(x)=(A+(B−A)/(1+((C/x)^D)))].
As to `CC(C)c1ccc2c(c1OCC(=O)O)CCCC2NS(=O)(=O)c1cc(C(F)(F)F)cc(C(F)(F)F)c1` (stereo not drawn) [Example 1-2, [5-(3,5-Bis-trifluoromethyl-benzenesulfonyl-amino)-2-isopropyl-5,6,7,8-tetrahydro-naphthalen-1-yloxy]-acetic acid], the IC50 turned out to be 195 nM.

As to `O=C(O)COc1cc(Cl)cc2c1CCC[C@H]2NS(=O)(=O)c1ccc(Cl)cc1Cl` [Example 1-18, [(R)-3-Chloro-5-(2,4-dichloro-benzenesulfonyl-amino)-5,6,7,8-tetrahydro-naphthalen-1-yloxy]-acetic acid], the IC50 came out at 2.8 nM.

In the case of `O=C(O)COc1c(F)c(F)cc2c1CCCC2NS(=O)(=O)c1cc(F)cc(C(F)(F)F)c1` (stereo not drawn) [Example 1-26, [2,3-Difluoro-5-(3-fluoro-5-trifluoromethyl-benzenesulfonyl-amino)-5,6,7,8-tetrahydro-naphthalen-1-yloxy]-acetic acid], the IC50 came out at 42.2 nM.

Turning to `CC(C)c1cccc(-c2ccc(S(=O)(=O)NC3CCCc4c3cc(Cl)c(F)c4OCC(=O)O)nc2)c1` (stereo not drawn) [Example 1-44, {3-Chloro-2-fluoro-5-[5-(3-isopropyl-phenyl)-pyridine-2-sulfonylamino]-5,6,7,8-tetrahydro-naphthalen-1-yloxy}-acetic acid], the IC50 came out at 16.4 nM.

In turn, `CCc1ccc2c(c1OCC(=O)O)CCCC2NS(=O)(=O)c1cc(C(F)(F)F)cc(C(F)(F)F)c1` (stereo not drawn) [Example 1-4, [5-(3,5-Bis-trifluoromethyl-benzenesulfonyl-amino)-2-ethyl-5,6,7,8-tetrahydro-naphthalen-1-yloxy]-acetic acid] yielded an IC50 of 64 nM.

Molecule `O=C(O)COc1c(Cl)ccc2c1CCC[C@H]2NS(=O)(=O)c1cc(C(F)(F)F)cc(C(F)(F)F)c1` [Example 1-25, [(R)-5-(3,5-Bis-trifluoromethyl-benzenesulfonyl-amino)-2-chloro-5,6,7,8-tetrahydro-naphthalen-1-yloxy]-acetic acid] showed an IC50 of 95.9 nM.

Regarding `CN(C1CCCc2c(OCC(=O)O)cc(Cl)cc21)S(=O)(=O)c1ccc(Cl)cc1Cl` (stereo not drawn) [Example 2-6, {3-Chloro-5-[(2,4-dichloro-benzenesulfonyl)-methyl-amino]-5,6,7,8-tetrahydro-naphthalen-1-yloxy}-acetic acid], the IC50 was determined as 92.9 nM.

For `O=C(O)COc1cc(F)cc2c1CCCC2NS(=O)(=O)c1ccc(Cl)cc1Cl` (stereo not drawn) [Example 1-31, [5-(2,4-Dichloro-benzenesulfonyl-amino)-3-fluoro-5,6,7,8-tetrahydro-naphthalen-1-yloxy]-acetic acid], the IC50 is 154 nM.

In turn, `CN(C1CCCc2c(OCC(=O)O)cc(Cl)cc21)S(=O)(=O)c1cc(F)cc(C(F)(F)F)c1` (stereo not drawn) [Example 2-14, {3-Chloro-5-[(3-fluoro-5-trifluoromethyl-benzenesulfonyl)-methyl-amino]-5,6,7,8-tetrahydro-naphthalen-1-yloxy}-acetic acid] showed an IC50 of 11.2 nM.

For the molecule `CN(C1CCCc2c1cc(F)c(F)c2OCC(=O)O)S(=O)(=O)c1ccc(Cl)cc1Cl` (stereo not drawn) [Example 2-18, {5-[(2,4-Dichloro-benzenesulfonyl)-methyl-amino]-2,3-difluoro-5,6,7,8-tetrahydro-naphthalen-1-yloxy}-acetic acid], the 50% inhibitory concentration (IC50) worked out at 2520 nM.

Turning to `CN(C1CCCc2c(OCC(=O)O)cc(F)cc21)S(=O)(=O)c1cc(F)cc(C(F)(F)F)c1` (stereo not drawn) [Example 2-23, {3-Fluoro-5-[(3-fluoro-5-trifluoromethyl-benzenesulfonyl)-methyl-amino]-5,6,7,8-tetrahydro-naphthalen-1-yloxy}-acetic acid], the IC50 was determined as 198 nM.

In turn, `CN(C1CCCc2c(OCC(=O)O)cc(Cl)cc21)S(=O)(=O)c1cc(Cl)ccc1Cl` (stereo not drawn) [Example 2-10, {3-Chloro-5-[(2,5-dichloro-benzenesulfonyl)-methyl-amino]-5,6,7,8-tetrahydro-naphthalen-1-yloxy}-acetic acid] had an IC50 of 859 nM.

Take `CN(C1CCCc2c(OCC(=O)O)cc(Cl)cc21)S(=O)(=O)c1cc(C(F)(F)F)cc(C(F)(F)F)c1` (stereo not drawn) [Example 2-4, {5-[(3,5-Bis-trifluoromethyl-benzenesulfonyl)-methyl-amino]-3-chloro-5,6,7,8-tetrahydro-naphthalen-1-yloxy}-acetic acid]: the 50% inhibitory concentration (IC50) was found to be 8.3 nM.

Molecule `CN(C1CCCc2c(OCC(=O)O)cc(F)cc21)S(=O)(=O)c1cc(Br)cc(C(F)(F)F)c1` (stereo not drawn) [Example 2-22, {5-[(3-Bromo-5-trifluoromethyl-benzenesulfonyl)-methyl-amino]-3-fluoro-5,6,7,8-tetrahydro-naphthalen-1-yloxy}-acetic acid] registered an IC50 of 5.4 nM.

Molecule `O=C(O)COc1c(F)c(Cl)cc2c1CCC[C@H]2NS(=O)(=O)c1cc(F)cc(C(F)(F)F)c1` [Example 1-38, [(R)-3-Chloro-2-fluoro-5-(3-fluoro-5-trifluoromethyl-benzenesulfonyl-amino)-5,6,7,8-tetrahydro-naphthalen-1-yloxy]-acetic acid] returned an IC50 of 3.4 nM.

In the case of `CN(C1CCCc2c(OCC(=O)O)cc(Cl)cc21)S(=O)(=O)c1cc(Br)cc(C(F)(F)F)c1` (stereo not drawn) [Example 2-13, {5-[(3-Bromo-5-trifluoromethyl-benzenesulfonyl)-methyl-amino]-3-chloro-5,6,7,8-tetrahydro-naphthalen-1-yloxy}-acetic acid], the IC50 was determined as 6.2 nM.

`CN(C1CCCc2c(OCC(=O)O)cc(F)cc21)S(=O)(=O)c1cc(Cl)ccc1Cl` (stereo not drawn) [Example 2-19, {55-[(2,5-Dichloro-benzenesulfonyl)-methyl-amino]-3-fluoro-5,6,7,8-tetrahydro-naphthalen-1-yloxy}-acetic acid] gave an IC50 of 2640 nM.

The subject of the next test is DK-PGD2-induced IL-13 production in T helper type 2 (Th2) cells. Briefly: DK-PGD2-Induced IL-13 Production Assay in Th2 Cells. Format: cell-based. Conditions: human Th2 cells, 500 nM DK-PGD2, 4 hrs at 37° C., ELISA; unit inferred; read-out: IC50 of inhibiting IL-13 production (values greater than 10). The method, then: Inhibition of 13,14-dihydro-15-keto Prostaglandin D2 (DK-PGD2)-induced IL-13 production in T helper type 2 (Th2) cells was applied to evaluate compound cellular potency.
Cultures of Th2 cells were established from blood of healthy human volunteers according to the following procedure. Peripheral blood mononuclear cells (PBMC) were first isolated from 50 mL of fresh blood by Ficoll-Hypaque density gradient centrifugation, followed by CD4^+ cell purification using a CD4^+ T Cell Isolation Kit II (from Miltenyi Biotec Inc.). The CD4^+ T cells were then differentiated to Th2 cells by culturing the cells in X-VIVO 15® medium (from Cambrex BioScience Walkersville Inc.) containing 10% human AB serum (serum of blood type AB from Invitrogen Corporation), 50 U/mL of recombinant human interleukin-2 (rhIL-2) (from PeproTech Inc.) and 100 ng/mL of recombinant human interleukin-4 (rhIL-4) (from PeproTech Inc.) for 7 days. The Th2 cells were isolated using a CD294 (CRTH2) MicroBead Kit (from Miltenyi Biotec Inc.) and amplified in X-VIVO 15® medium containing 10% human AB serum and 50 U/mL of rhIL-2 for 2 to 5 weeks. In general, 70% to 80% of the Th2 cells used in the assay are CRTH2-positive when analyzed by fluorescence-activated cell sorting using the BM16 antibody (as previously described) conjugated to phycoerythrin (PE).
The spontaneous production of IL-13 by Th2 cells was determined in the absence of DK-PGD2 stimulation and the value was subtracted from that in the presence of each compound for percent inhibition and IC50 calculations.
The percent inhibition of interleukin 13 (IL-13) production for a compound at various concentrations was calculated according to the following formula, [1-(IL-13 production in the presence of compound)/(IL-13 production in the presence of 0.15% DMSO)]×100. The IC50 value, defined as the concentration of a compound that is required for 50% inhibition of IL-13 production, was calculated by fitting the percent inhibition data for 7 concentrations to a sigmoidal dose-response (4 parameter logistic) model in the XLfit® software Excel add-in program [ID Business Solutions Ltd., model 205, where F(x)=(A+(B−A)/(1+((C/x)^D)))].
With `CC(C)c1ccc2c(c1OCC(=O)O)CCCC2NS(=O)(=O)c1cc(C(F)(F)F)cc(C(F)(F)F)c1` (stereo not drawn) [Example 1-2, [5-(3,5-Bis-trifluoromethyl-benzenesulfonyl-amino)-2-isopropyl-5,6,7,8-tetrahydro-naphthalen-1-yloxy]-acetic acid], the IC50 was greater than 10000 nM.
